In publication PMC8511083 (European journal of medicinal chemistry, 2021):

Experiments:
[1] = system: panel of melanoma and breast cancer cell lines; test: Average growth inhibition in panel of melanoma and breast cancer cell lines; type: cell-based; conditions: Homo sapiens, read-out: Average IC50, average of results obtained in all six cell lines
[2] = system: OVCAR3 and OVCAR8 cells; test: Average growth inhibition in ovarian cancer cell lines; type: cell-based; conditions: Homo sapiens, read-out: Average IC50
[3] = molecular target: T1, survivin (Homo sapiens, UniProt O15392); test: Western blot of IAPs and cleaved-PARP in A375 cells
T1 sequence (O15392 whole entry): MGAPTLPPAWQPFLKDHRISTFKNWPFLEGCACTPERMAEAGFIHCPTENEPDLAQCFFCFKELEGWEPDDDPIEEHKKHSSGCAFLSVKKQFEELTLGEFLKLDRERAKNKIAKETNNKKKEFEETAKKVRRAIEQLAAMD

[4] = molecular target: T1, survivin; test: Western blot of survivin in ovarian cancer cells; conditions: OVCAR8, SKOV3 and OVCAR3 cells, 24 hr, 2 and 4 μM
[5] = system: A375 xenograft tumors; test: A375 subcutaneous melanoma xenograft model in NSG mice; type: in vivo, mouse; conditions: 20 mg/kg IP, 3 times/week, 15 days, end of experiment, vs vehicle
[6] = Liver microsome stability assay, human; conditions: human microsomes, 88 vs 51 min
[7] = system: MDA-MB-435; test: In vitro antiproliferative; type: cell-based; conditions: Homo sapiens, MDA-MB-435, 72 h, read-out: IC50 MDA-MB-435
[8] = system: MDA-MB-435/LCC6MDR1; test: In vitro antiproliferative; type: cell-based; conditions: Homo sapiens, 72 h, read-out: IC50 MDA-MB-435/LCC6MDRI

Compound | IC50 [1] [nM] | other results
Oc1c(CN2CCCC2)cc(COC2CCc3ccccc3C2)c2cccnc12 (stereo not shown) [Compound 4d, 7-(pyrrolidin-1-ylmethyl)-5-(((1,2,3,4-tetrahydronaphthalen-2-yl)oxy)methyl)quinolin-8-ol] | 1900 | 
Cc1ccc(-c2cnn(Cc3cc(CN4CCCC4)c(O)c4ncccc34)n2)cc1 [Compound 7d, 7-(pyrrolidin-1-ylmethyl)-5-((4-(p-tolyl)-2H-1,2,3-triazol-2-yl)methyl)quinolin-8-ol] | 1600 | 
CCc1ccc(-c2cnn(Cc3cc(CN4CCCC4)c(O)c4ncccc34)n2)cc1 [Compound 7e, 5-((4-(4-ethylphenyl)-2H-1,2,3-triazol-2-yl)methyl)-7-(pyrrolidin-1-ylmethyl)quinolin-8-ol] | 2000 | 
O=[N+]([O-])c1ccc(-c2cnn(Cc3cc(CN4CCCC4)c(O)c4ncccc34)n2)cc1 [Compound 7f, 5-((4-(4-nitrophenyl)-2H-1,2,3-triazol-2-yl)methyl)-7-(pyrrolidin-1-ylmethyl)quinolin-8-ol] | 2400 | 
Oc1c(CN2CCCC2)cc(Cn2ncc(-c3ccccc3Br)n2)c2cccnc12 [Compound 7j, 5-((4-(2-bromophenyl)-2H-1,2,3-triazol-2-yl)methyl)-7-(pyrrolidin-1-ylmethyl)quinolin-8-ol] | 1700 | 
Oc1c(CN2CCCCC2)cc(Cn2ncc(-c3ccc(Br)cc3)n2)c2cccnc12 [Compound 12a, 5-((4-(4-bromophenyl)-2H-1,2,3-triazol-2-yl)methyl)-7-(piperidin-1-ylmethyl)quinolin-8-ol] | 1400 | IC50 [2]: 1100 nM
Oc1c(CN2CCCCC2)cc(Cn2ncc(-c3ccc(C(F)(F)F)cc3)n2)c2cccnc12 [Compound 12b, 7-(piperidin-1-ylmethyl)-5-((4-(4-(trifluoromethyl)phenyl)-2H-1,2,3-triazol-2-yl)methyl)quinolin-8-ol] |  | reduction of tumor weight [5]: approximately 32%; improvement of metabolic stability over MX-106 [6]: 1.7 fold
Oc1c(CN2CCOCC2)cc(Cn2ncc(-c3ccc(Br)cc3)n2)c2cccnc12 [Compound 12e, 5-((4-(4-bromophenyl)-2H-1,2,3-triazol-2-yl)methyl)-7-(morpholinomethyl)quinolin-8-ol] | 1700 | 
CC(C)c1ccc(COCc2cc(-c3ccccc3)c(O)c3ncccc23)cc1 [Compound 19a, 5-(((4-isopropylbenzyl)oxy)methyl)-7-phenylquinolin-8-ol] |  | IC50 [2]: 2000 nM; apoptosis induction (cleaved-PARP, western blot) ([3]; 24 h): effectively induced apoptosis; survivin protein levels at 10 μM (western blot) ([3]; 24 h, 10 μM): did not show survivin downregulation; survivin protein levels (western blot) ([3]; 24 h, 1, 5 and 10 μM): selectively downregulated survivin
Cc1cccc(-c2cc(COCc3ccc(C(C)C)cc3)c3cccnc3c2O)c1 [Compound 19e, 5-(((4-isopropylbenzyl)oxy)methyl)-7-(m-tolyl)quinolin-8-ol] | 1600 | 
COc1ccc(-c2cc(COCc3ccc(C(C)C)cc3)c3cccnc3c2O)cc1 [Compound 19f, 5-(((4-isopropylbenzyl)oxy)methyl)-7-(4-methoxyphenyl)quinolin-8-ol] | 1400 | 
CC(C)c1ccc(COCc2cc(-c3ccc(C(F)(F)F)cc3)c(O)c3ncccc23)cc1 [Compound 19g, 5-(((4-isopropylbenzyl)oxy)methyl)-7-(4-(trifluoromethyl)phenyl)quinolin-8-ol] | 2600 | 
COCC[n+]1c2c(n(Cc3cnccn3)c1C)C(=O)c1ccccc1C2=O [YM-155] |  | IC50 [7]: 2.4 ± 0.2 nM; IC50 [8]: > 1000 nM

More lines, main results first:

IC50 [1] [nM] | Compound | other results
4200 | Oc1c(CN2CCCC2)cc(Cn2cnc(-c3ccccc3)c2)c2cccnc12 [Compound 4a, 5-((4-phenyl-1H-imidazol-1-yl)methyl)-7-(pyrrolidin-1-ylmethyl)quinolin-8-ol] | 
2700 | Oc1c(CN2CCCC2)cc(COC2Cc3ccccc3C2)c2cccnc12 [Compound 4c, 5-(((2,3-dihydro-1H-inden-2-yl)oxy)methyl)-7-(pyrrolidin-1-ylmethyl)quinolin-8-ol] | 
2000 | Oc1c(CN2CCCC2)cc(Cn2ncc(-c3ccc(Br)cc3)n2)c2cccnc12 [Compound 7a, 5-((4-(4-bromophenyl)-2H-1,2,3-triazol-2-yl)methyl)-7-(pyrrolidin-1-ylmethyl)quinolin-8-ol] | IC50 [2]: 1300 nM; apoptosis induction (cleaved-PARP, western blot) ([3]; 24 h): effectively induced apoptosis; levels of other IAPs (CIAP1, XIAP, Livin; western blot) ([3]; 24 h, 1, 5 and 10 μM): minimally affected; survivin protein levels (western blot) ([3]; 24 h, 1, 5 and 10 μM): selectively suppressed survivin levels
2400 | Oc1c(CN2CCCC2)cc(Cn2ncc(-c3ccc(C(F)(F)F)cc3)n2)c2cccnc12 [Compound 7b, 7-(pyrrolidin-1-ylmethyl)-5-((4-(4-(trifluoromethyl)phenyl)-2H-1,2,3-triazol-2-yl)methyl)quinolin-8-ol] | 
2000 | COc1ccc(-c2cnn(Cc3cc(CN4CCCC4)c(O)c4ncccc34)n2)cc1 [Compound 7g, 5-((4-(4-methoxyphenyl)-2H-1,2,3-triazol-2-yl)methyl)-7-(pyrrolidin-1-ylmethyl)quinolin-8-ol] | 
3300 | N#Cc1ccc(-c2cnn(Cc3cc(CN4CCCC4)c(O)c4ncccc34)n2)cc1 [Compound 7h, 4-(2-((8-hydroxy-7-(pyrrolidin-1-ylmethyl)quinolin-5-yl)methyl)-2H-1,2,3-triazol-4-yl)benzonitrile] | 
1700 | Oc1c(CN2CCCC2)cc(Cn2ncc(-c3cccc(Br)c3)n2)c2cccnc12 [Compound 7k, 5-((4-(3-bromophenyl)-2H-1,2,3-triazol-2-yl)methyl)-7-(pyrrolidin-1-ylmethyl)quinolin-8-ol] | IC50 [2]: 1100 nM; survivin protein accumulation (western blot) [4]: reduced the accumulation of survivin protein
3100 | CCN(CC)Cc1cc(Cn2ncc(-c3ccc(C(F)(F)F)cc3)n2)c2cccnc2c1O [Compound 12d, 7-((diethylamino)methyl)-5-((4-(4-(trifluoromethyl)phenyl)-2H-1,2,3-triazol-2-yl)methyl)quinolin-8-ol] | 
2600 | Oc1c(CN2CCNCC2)cc(Cn2ncc(-c3ccc(Br)cc3)n2)c2cccnc12 [Compound 14, 5-((4-(4-bromophenyl)-2H-1,2,3-triazol-2-yl)methyl)-7-(piperazin-1-ylmethyl)quinolin-8-ol] | 
900 | CC(C)c1ccc(COCc2cc(-c3cncc4ccccc34)c(O)c3ncccc23)cc1 [Compound 19b, 5-(((4-isopropylbenzyl)oxy)methyl)-7-(isoquinolin-4-yl)quinolin-8-ol] | 
1400 | CC(C)c1ccc(COCc2cc(-c3ccnc4ccccc34)c(O)c3ncccc23)cc1 [Compound 19c, 5’-(((4-isopropylbenzyl)oxy)methyl)-[4,7’-biquinolin]-8’-ol] | 
1400 | Cc1ccc(-c2cc(COCc3ccc(C(C)C)cc3)c3cccnc3c2O)cc1 [Compound 19d, 5-(((4-isopropylbenzyl)oxy)methyl)-7-(p-tolyl)quinolin-8-ol] | 
